“And” between values parts separate entries of the source, which are not always exact repeats. Identical values can stand only once. “Also recorded” adds a separate entry of the source. Marks after values point to notes of the source that are not given here.
Key:
[1] = system: male SD rats, obstruction-released kidney (glomerular lesions and tubulointerstitial lesions); assay: Obstruction release model after complete obstruction of unilateral ureter for 14 days (Example 2-1); assay type: in vivo; set-up: key to Tubulointerstitial lesions: level of lesions (quality): summed lesion score: + = 1, ++ = 2, +++ = 3 points; settings: rat
Text: That is, the rat was laparotomized under anesthesia with ether and left ureter was ligated with 7-0 Nylon at the height of the margin of lower pole of kidney to close the abdomen. On the 14th day after obstruction, the obstruction was released and urinary passage was reconstructed using a cuff. Thus, after 14 days, the part of ligated obstructed ureter was resected, a polyethylene tube of 25 gages (manufactured by Nippon Sherwood) was used as a cuff and inserted into and retained at the lumen from the cut end of the lower normal ureter, then the cuff was also retained in the expanded upper ureter and each of them was ligated and fixed by 7-0 Nylon to reconstruct the urinary passage. At the same time, the right kidney at the opposite side was excised. After the release of the obstruction, body weight was measured, blood was drawn on the 2nd day, 5th day and 7th day from the release to measure serum creatinine, then the rat was killed under anesthesia and the left obstruction-released kidney was excised.
With regard to the excised kidney, there were carried out measurements of weight of the kidney, creatinine concentration mg/dl in plasma as an indicator of kidney function and pathological test for the kidney, and also leukocyte cells which infiltrate the obstruction-released kidney were immunopathologically studied with cell surface markers for ED1 macrophages, CD11b (ED8) positive macrophages and CD5 positive lymphocytes. A number of positive cells was expressed as a number of cells per glomerulus from measured numbers of positive cells in five glomeruli, and for a number in tubulointerstitial tissue, it was expressed by the total number of cells existing in five fields of 200×magnification. For macrophages, a number of CD11b positive cells existing in glomerulus was considered as a number of CD11b^+CD2^+ macrophages and a case of existing not less than one positive cell per glomerulus was considered as positive (+). In the tubulointerstitial tissue, a number of […] 60 CD11b positive cells was considered as positive (+), or a case of CD11b^−CD2^+ macrophages dominantly increasing. Scoring of evaluation of tubulointerstitial lesions was as follows: + gets 1-point as a light lesion; ++ gets 2-point as a moderate lesion; and +++ gets3-point as a severe lesion. For glomerular lesions, when a proportion of lesioned glomeruli was decreased to not more than 40%, and for tubulointerstitial lesions, when a score of the lesions was not more than 4, it was considered as improved.
For glomerular lesions, by counting glomeruli causing thickening of Bowman's capsule wall and glomerular hyalinosis, a proportion of glomeruli having lesions was calculated. For tubulointerstitial lesions, by qualifying hyperplasia of tubular basement membrane and interstitial fibrosis, levels of the lesions were represented.
An in vivo biological test was carried out for the γ-lactone derivative according to the present invention using this model. Bulk powder of a test compound was dissolved in sterile physiological saline together with gum arabic, and concentrations of the test compound and gum arabic were adjusted to 30 mg/mL and 5% respectively. The preparation was administered orally or subcutaneously injected at the dose of 30 mg/kg or 3 mg/kg every day. The administration was conducted for the total 21 days of the obstructed period for 14 days and after release of the obstruction for 7 days.
For test groups, a group administered single compound group, a group administered both compound group and a control group administered solution of gum arabic were set up and compared for renal functions and morphological evaluations, as well as numbers of ED1, CD5, CD11b positive cells by means of immunopathology.

[2] = system: male SDT rats (spontaneously type II diabetes model), complete skin-excised wounds; assay: Complete skin-excised model, wound healing; assay type: in vivo; settings: SDT rat, 10 mg/kg subcutaneously every day
Text: Using male SDT rats of 28-30 weeks age, which were a spontaneously type II diabetes model, promoting effect on repair and regeneration in wound healing after complete skin excision were examined according to a partially modified method of Breitbout AS et al. (Ann Plast Surg 1999, 43: 632). That is, an animal was shaved at its back under anesthesia with ether, and skin in 2×2 cm size was excised together with panniculus carnosus in same size to make two complete skin-excised wounds per animal.
Healings of the wounds were observed on the 1st day, 4th day, 7th day, 12h day, 15th day, 21st day and 28th day from the operation. An area of the wounds was obtained as the product of the average vertical length and the average horizontal length which were measured along with a direction of the longest part in the wound.
A test compound was dissolved in sterile physiological saline together with gum arabic. Concentrations of the test compound and gum arabic were adjusted to 30 mg/mL and 5% respectively. The preparation was subcutaneously injected at the dose of 10 mg/kg every day. The administration was started on 6 days before the operation and continued to 28 days after the operation.

[3] = 30 mg/kg subcutaneously every day for 21 days, one value per animal, 30 mg/kg

Compound: C[C@@H](OC(=O)[C@]1(Oc2ccc(F)cc2)CCC(=O)O1)c1ccc2ccccc2c1 [compound (I-1), (R)-1-naphthalen-2-ylethyl (S)-2-(4-fluorophenoxy)-5-oxotetrahydrofuran-2-carboxylate]
- cases with increased regeneration-promoting CD11b^+CD2^+ macrophages to glomerular lesions ([1]; 30 mg/kg subcutaneously): two of four cases
- cases with increased regeneration-promoting CD11b^−CD2^+ macrophages to tubulointerstitial lesions ([1]; 30 mg/kg subcutaneously): three of four cases
- difference in serum creatinine ([1]; 30 mg/kg subcutaneously): no difference
- pathological improvement of glomerular lesions (cases) ([1]; 30 mg/kg subcutaneously): no glomerular lesion was improved
- pathological improvement of tubulointerstitial lesions (cases) ([1]; 30 mg/kg subcutaneously): three of four cases
- Coincidence of two regeneration macrophages being positive [1, 3]: Not coincident; also recorded: Coincident
- Glomerular lesions: proportion of lesioned glomeruli (%) [1, 3]: 29% and 39% and 57% and 67%
- Number of regeneration CD11b^+CD2^+ macrophages to glomerular lesions: number of positive cells per glomerulus [1, 3]: 0.5 cells per glomerulus and 2.0 cells per glomerulus and 0.0 cells per glomerulus and 1.3 cells per glomerulus
- Number of regeneration CD11b^−CD2^+ macrophages to tubulointerstitial lesions: number of positive cells (CD11b) in five fields of 200× magnification [1, 3]: 24 cells in five fields of 200× m and 140 cells in five fields of 200× m and 59 cells in five fields of 200× m and 41 cells in five fields of 200× m
- Regeneration CD11b^+CD2^+ macrophages to glomerular lesions, Determination: increase = + [1, 3]: + (a case of existing not less than one positive cell per glomerulus was considered as positive (+))
- Regeneration CD11b^−CD2^+ macrophages to tubulointerstitial lesions, Determination: increase + [1, 3]: + (a number of not more than 60 CD11b positive cells was considered as positive (+))
- Serum creatinine [1, 3]: 3.0 mg/dL and 2.7 mg/dL and 2.8 mg/dL and 2.2 mg/dL
- Tubulointerstitial lesions: level of lesions (quality) [1, 3]: 7.0 and 4.0 and 3.0 (2×)
- Excised wound area (cm^2) ([2]; 1st day after complete skin excision): 3.38 cm^2
- Excised wound area (cm^2) ([2]; 4th day after complete skin excision): 2.10 cm^2
- Excised wound area (cm^2) ([2]; 7th day after complete skin excision): 1.45* cm^2
- Excised wound area (cm^2) ([2]; 12th day after complete skin excision): 0.56* cm^2
- Excised wound area (cm^2) ([2]; 15th day after complete skin excision): 0.51 cm^2
- Excised wound area (cm^2) ([2]; 21st day after complete skin excision): 0.40 cm^2
- Crust formation/number of wound ([2]; 21st day after the operation): 0/8
- crust formation on the surface of repaired wounds (in words) ([2]; 28th day): no crust formation occurred
- Excised wound area (cm^2) ([2]; 28th day after complete skin excision): 0.18* cm^2
- Crust formation/number of wound ([2]; 28th day after the operation): 0/8
- promoting effect on wound healing (in words) ([2]; versus the control group, 10 mg/kg): more promoting effect on wound healing at 7th day to 12th day after the operation; also recorded: in 28th day of healing period, it showed promoting effect on wound healing; also recorded: promoting effect on healing of dermis and epidermis including panniculus carnosus
